The text below walks through data of the supplement of paper PMC10307832.

Common to all, as to experiment: relative viability (nuclei count vs DMSO), 5 days (fraction); higher = more cells survive
Compound in experiment [1]: CN[C@@H]1C[C@H]2O[C@@](C)([C@@H]1OC)n1c3ccccc3c3c4c(c5c6ccccc6n2c5c31)C(=O)NC4 [Staurosporine] + N=C(N)NC(=N)NCCc1ccccc1 [Phenformin] (partner 250 µM)
The procedure, abridged:
(§1)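 Relative viability equals treated-well nuclei counts divided by vehicle-well nuclei counts. Counts came from 4× images of lung cancer cell lines grown in 1536-well plates for 5 days after pin-tool dosing on the day after seeding. Dosing used one drug alone or a fixed anchor-drug dose plus five library-drug doses (not always all listed) in √10 steps, and values are medians of duplicate plates.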

Compound in experiment [2]: CN[C@@H]1C[C@H]2O[C@@](C)([C@@H]1OC)n1c3ccccc3c3c4c(c5c6ccccc6n2c5c31)C(=O)NC4 [Staurosporine] + C[C@]1(O)C[C@@H](c2nc(-c3ccc4ccc(-c5ccccc5)nc4c3)c3c(N)nccn32)C1 [Linsitinib] (partner 1 µM)
The procedure, abridged: as §1

Compound in experiment [3]: O=c1[nH]cc(F)c(=O)[nH]1 [5-Fluorouracil] + O=C(CCCCCCC(=O)Nc1ccccc1)NO [Vorinostat] (partner 1 µM)
The procedure, abridged:
as §1

Compound in experiment [4]: CC1=C(CC(=O)O)c2cc(F)ccc2/C1=C\c1ccc([S+](C)[O-])cc1 [Sulindac] + C[C@]1(O)C[C@@H](c2nc(-c3ccc4ccc(-c5ccccc5)nc4c3)c3c(N)nccn32)C1 [Linsitinib] (partner 1 µM)
The procedure, abridged:
as §1

For the cell line UMC-11, the relative viability in experiment [1] (first compound 0.005 µM) stood at 0.305; in experiment [1] (first compound 0.01581 µM), 0.168; in experiment [1] (first compound 0.05 µM), 0.135; in experiment [1] (first compound 0.1581 µM) it was 0.0915; in experiment [1] (first compound 0.5 µM) it was 0.13; in experiment [2] (first compound 0.005 µM), 0.901. The relative viability in experiment [2] (first compound 0.01581 µM) was 0.569; in experiment [2] (first compound 0.05 µM), 0.583; in experiment [2] (first compound 0.1581 µM) it was 0.126; in experiment [2] (first compound 0.5 µM), 0.0837; in experiment [3] (first compound 0.02 µM) it was 0.374; in experiment [3] (first compound 0.2 µM) it was 0.325. For the same cell line, the relative viability in experiment [3] (first compound 0.6325 µM) worked out at 0.244; in experiment [4] (first compound 0.08 µM), 1.27; in experiment [4] (first compound 0.253 µM) it was 1.02; in experiment [4] (first compound 0.8 µM), 0.815; in experiment [4] (first compound 2.53 µM) it was 1.06; in experiment [4] (first compound 8 µM), 1.07.
